Measurements reported in the supplement of paper PMC10307832.

How the values were obtained:
Assay in all cases: relative viability (nuclei count vs DMSO), 5 days (fraction); higher = more cells survive
LC-2-ad = tested on: LC-2-ad
Procedure, shortened: (§1)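 Lung cancer cell lines, seeded in 1536-well plates, were treated the following day by pin tool with a single drug or with five library-drug doses (not always all listed) in √10 steps on top of a fixed anchor-drug dose. Cells were fixed and nuclei stained in one step after 5 days, and nuclei were counted. Relative viability is the nuclei count for treated wells divided by that for vehicle wells, reported as medians of duplicate plates.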

NCI-H650 = tested on: NCI-H650
Procedure, shortened: as §1

NCI-H2347 = tested on: NCI-H2347
Procedure, shortened: as §1

NCI-H2126 = tested on: NCI-H2126
Procedure, shortened: as §1

COR-L 105 = tested on: COR-L 105
Procedure, shortened: as §1

H3255 = tested on: H3255
Procedure, shortened: as §1

NCI-H661 = tested on: NCI-H661
Procedure, shortened: as §1

HCC-78 = tested on: HCC-78
Procedure, shortened: as §1

NCI-H322M = tested on: NCI-H322M
Procedure, shortened: as §1

PC-14 = tested on: PC-14
Procedure, shortened: as §1

EPLC-272H = tested on: EPLC-272H
Procedure, shortened: as §1

LCLC-97TM1 = tested on: LCLC-97TM1
Procedure, shortened: as §1

NCI-H2087 = tested on: NCI-H2087
Procedure, shortened: as §1

NCI-H647 = tested on: NCI-H647
Procedure, shortened: as §1

NCI-H23 = tested on: NCI-H23
Procedure, shortened: as §1

RERF-LC-KJ = tested on: RERF-LC-KJ
Procedure, shortened: as §1

201T = tested on: 201T
Procedure, shortened: as §1

NCI-H2405 = tested on: NCI-H2405
Procedure, shortened: as §1

NCI-H520 = tested on: NCI-H520
Procedure, shortened: as §1

NCI-H1915 = tested on: NCI-H1915
Procedure, shortened: as §1

NCI-H1666 = tested on: NCI-H1666
Procedure, shortened: as §1

HCC-827 = tested on: HCC-827
Procedure, shortened: as §1

ChaGo-K-1 = tested on: ChaGo-K-1
Procedure, shortened: as §1

Which results are given for `COc1cc(N2CCC(C(N)=O)CC2)ccc1Nc1nc(N)c(Cl)c(Nc2ccccc2S(=O)(=O)C(C)C)n1` [HG-5-88-01] + CC(C)C[C@H](NC(=O)[C@H](Cc1ccccc1)NC(=O)c1cnccn1)B(O)O [Bortezomib] (partner 0.002 µM)?
relative viability (LC-2-ad; first compound 0.04 µM): 1.06; relative viability (LC-2-ad; first compound 0.1265 µM): 1.04; relative viability (LC-2-ad; first compound 0.4 µM): 0.945; relative viability (LC-2-ad; first compound 1.265 µM): 0.973; relative viability (LC-2-ad; first compound 4 µM): 0.819; relative viability (NCI-H650; first compound 0.04 µM): 0.844; relative viability (NCI-H650; first compound 0.1265 µM): 0.767; relative viability (NCI-H650; first compound 0.4 µM): 0.711; relative viability (NCI-H650; first compound 1.265 µM): 0.815; relative viability (NCI-H650; first compound 4 µM): 0.381; relative viability (NCI-H2347; first compound 0.04 µM): 0.954; relative viability (NCI-H2347; first compound 0.1265 µM): 0.873; relative viability (NCI-H2347; first compound 0.4 µM): 1.01; relative viability (NCI-H2347; first compound 1.265 µM): 1.16; relative viability (NCI-H2347; first compound 4 µM): 0.897; relative viability (NCI-H2126; first compound 0.04 µM): 1.16; relative viability (NCI-H2126; first compound 0.1265 µM): 1.12; relative viability (NCI-H2126; first compound 0.4 µM): 1.13; relative viability (NCI-H2126; first compound 1.265 µM): 1.15; relative viability (NCI-H2126; first compound 4 µM): 1.12; relative viability (COR-L 105; first compound 0.04 µM): 0.875; relative viability (COR-L 105; first compound 0.1265 µM): 0.77; relative viability (COR-L 105; first compound 0.4 µM): 0.619; relative viability (COR-L 105; first compound 1.265 µM): 0.375; relative viability (COR-L 105; first compound 4 µM): 0.531; relative viability (H3255; first compound 0.04 µM): 0.748; relative viability (H3255; first compound 0.1265 µM): 0.745; relative viability (H3255; first compound 0.4 µM): 0.75; relative viability (H3255; first compound 4 µM): 0.388; relative viability (NCI-H661; first compound 0.04 µM): 0.838; relative viability (NCI-H661; first compound 0.1265 µM): 0.878; relative viability (NCI-H661; first compound 0.4 µM): 0.726; relative viability (NCI-H661; first compound 4 µM): 0.894; relative viability (HCC-78; first compound 0.04 µM): 0.467; relative viability (HCC-78; first compound 0.1265 µM): 0.369; relative viability (HCC-78; first compound 0.4 µM): 0.393; relative viability (HCC-78; first compound 1.265 µM): 0.218; relative viability (HCC-78; first compound 4 µM): 0.211; relative viability (NCI-H322M; first compound 0.04 µM): 1.22; relative viability (NCI-H322M; first compound 0.1265 µM): 1.04; relative viability (NCI-H322M; first compound 0.4 µM): 1.38; relative viability (NCI-H322M; first compound 1.265 µM): 1.23; relative viability (NCI-H322M; first compound 4 µM): 1.08; relative viability (PC-14; first compound 0.04 µM): 0.837; relative viability (PC-14; first compound 0.1265 µM): 0.969; relative viability (PC-14; first compound 0.4 µM): 0.864; relative viability (PC-14; first compound 1.265 µM): 0.883; relative viability (PC-14; first compound 4 µM): 0.316; relative viability (EPLC-272H; first compound 0.04 µM): 0.854; relative viability (EPLC-272H; first compound 0.1265 µM): 0.941; relative viability (EPLC-272H; first compound 0.4 µM): 1; relative viability (EPLC-272H; first compound 1.265 µM): 0.851; relative viability (EPLC-272H; first compound 4 µM): 0.385; relative viability (LCLC-97TM1; first compound 0.04 µM): 1.05; relative viability (LCLC-97TM1; first compound 0.1265 µM): 0.313; relative viability (LCLC-97TM1; first compound 0.4 µM): 0.308; relative viability (LCLC-97TM1; first compound 1.265 µM): 0.546; relative viability (LCLC-97TM1; first compound 4 µM): 0.213; relative viability (NCI-H2087; first compound 0.04 µM): 0.818; relative viability (NCI-H2087; first compound 0.1265 µM): 0.692; relative viability (NCI-H2087; first compound 0.4 µM): 0.713; relative viability (NCI-H2087; first compound 1.265 µM): 1.01; relative viability (NCI-H2087; first compound 4 µM): 0.934; relative viability (NCI-H647; first compound 0.04 µM): 1.02; relative viability (NCI-H647; first compound 0.1265 µM): 0.826; relative viability (NCI-H647; first compound 1.265 µM): 1.07; relative viability (NCI-H647; first compound 4 µM): 0.967; relative viability (NCI-H23; first compound 0.04 µM): 0.954; relative viability (NCI-H23; first compound 0.1265 µM): 1.02; relative viability (NCI-H23; first compound 0.4 µM): 0.91; relative viability (NCI-H23; first compound 1.265 µM): 1.12; relative viability (NCI-H23; first compound 4 µM): 0.629; relative viability (RERF-LC-KJ; first compound 0.04 µM): 1.23; relative viability (RERF-LC-KJ; first compound 0.1265 µM): 1.19; relative viability (RERF-LC-KJ; first compound 0.4 µM): 1.08; relative viability (RERF-LC-KJ; first compound 1.265 µM): 0.992; relative viability (RERF-LC-KJ; first compound 4 µM): 0.639; relative viability (201T; first compound 0.04 µM): 1.12; relative viability (201T; first compound 0.1265 µM): 1.03; relative viability (201T; first compound 0.4 µM): 1.1; relative viability (201T; first compound 1.265 µM): 1.06; relative viability (201T; first compound 4 µM): 1.2; relative viability (NCI-H2405; first compound 0.04 µM): 1.01; relative viability (NCI-H2405; first compound 0.1265 µM): 0.977; relative viability (NCI-H2405; first compound 0.4 µM): 0.929; relative viability (NCI-H2405; first compound 1.265 µM): 0.933; relative viability (NCI-H2405; first compound 4 µM): 0.946; relative viability (NCI-H520; first compound 0.04 µM): 0.45; relative viability (NCI-H520; first compound 0.1265 µM): 0.633; relative viability (NCI-H520; first compound 0.4 µM): 0.304; relative viability (NCI-H520; first compound 1.265 µM): 0.698; relative viability (NCI-H520; first compound 4 µM): 0.546; relative viability (NCI-H1915; first compound 0.04 µM): 0.977; relative viability (NCI-H1915; first compound 0.1265 µM): 0.941; relative viability (NCI-H1915; first compound 0.4 µM): 0.941; relative viability (NCI-H1915; first compound 1.265 µM): 0.974; relative viability (NCI-H1915; first compound 4 µM): 0.621; relative viability (NCI-H1666; first compound 0.04 µM): 0.944; relative viability (NCI-H1666; first compound 0.1265 µM): 0.897; relative viability (NCI-H1666; first compound 0.4 µM): 0.597; relative viability (NCI-H1666; first compound 1.265 µM): 0.58; relative viability (NCI-H1666; first compound 4 µM): 0.452; relative viability (HCC-827; first compound 0.04 µM): 1.07; relative viability (HCC-827; first compound 0.1265 µM): 1.05; relative viability (HCC-827; first compound 0.4 µM): 1.06; relative viability (HCC-827; first compound 1.265 µM): 1.14; relative viability (HCC-827; first compound 4 µM): 0.472; relative viability (ChaGo-K-1; first compound 0.04 µM): 1.11; relative viability (ChaGo-K-1; first compound 0.1265 µM): 0.983; relative viability (ChaGo-K-1; first compound 0.4 µM): 0.976; relative viability (ChaGo-K-1; first compound 1.265 µM): 1.02; relative viability (ChaGo-K-1; first compound 4 µM): 0.785
